Test system: A549 cells and A549 xenografts
Assay: Immunoblot analysis of EGFR downstream signaling (ERK, AKT) in A549 cells and A549 xenografts
Format: cell-based
Details: in vitro and in vivo samples
Description: The treated cells or tumor tissues were lysed using an RIPA lysis buffer (Sigma) unsupplemented or supplemented with a phosphatase inhibitor+a protease inhibitor (Thermo Scientific). A total of 50 μg of protein was analyzed by immunoblotting via incubation at 4° C. overnight with Sprimary antibody specific to KRAS (Santa Cruz, 1:200 dilution), p-ERK (cell signal, 1:1000 dilution), ERK (Cell Signaling, 1:1000 dilution), and β-Actin (Abcam, 1:10000 dilution) and then incubation with secondary antibodies conjugated with horseradish peroxidase for 2 hours at room temperature. The proteins were visualized by chemicalluminescence using a Western ECL substrate (Bio-Rad) and luminescence images were analyzed by a LAS-3000 (Fujifilm). Band intensities were quantified using ImageJ software.
FIG. 6D illustrates immunoblot analysis of EGFR downstream signaling pathways in A549 cells and A549 xenografts.

Cn1cnc2c(F)c(Nc3ccc(Br)cc3Cl)c(C(=O)NOCCO)cc21 [AZD6244] was tested, and the “activation (phosphorylation) of ERK” value was “inhibited only activation of ERK”.

Source: patent US20190106688A1, “FUSION PROTEIN FOR CRISPR/CAS SYSTEM AND COMPLEX COMPRISING THE SAME AND USES THEREOF” (KOREA INSTITUTE OF SCIENCE AND TECHNOLOGY, priority 2017, published 2019)
